Drawing on PubChem BioAssay AID248 (DTP/NCI, 2004), this text covers T/C for 15 molecules.

Where “and” joins values, the source holds several entries; their conditions need not be identical. Equal entries are not always repeated. Toxic doses and inconclusive results are not listed.

The test relates to L1210 leukemia ip in BDF1 mice, survival T/C. The test is described as follows: NCI In Vivo Anticancer Drug Screen. Data for tumor model L1210 Leukemia (intraperitoneal) in B6D2F1 (BDF1) mice. Conditions: endpoint: mean survival time, higher = longer survival. The method in brief: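 Mice bearing the transplanted tumor received compound or vehicle. Survival of the treated group was divided by that of the vehicle-treated control group to give the ratio.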

Where [1] appears, read: dose: 25.0 mg/kg/injection, schedule: Q01DX009 (ip), vehicle: saline.
Where [2] appears, read: dose: 100.0 mg/kg/injection, schedule: Q04DX003 (ip), vehicle: Klucel (hydroxypropylcellulose) (HPC).
[3] abbreviates: dose: 200.0 mg/kg/injection, schedule: Q04DX003 (ip), vehicle: Klucel (hydroxypropylcellulose) (HPC).
[4] abbreviates: dose: 400.0 mg/kg/injection, schedule: Q04DX003 (ip), vehicle: Klucel (hydroxypropylcellulose) (HPC).
Where [5] appears, read: dose: 400.0 mg/kg/injection, schedule: Q04DX003 (ip), vehicle: saline.
The mark [6] stands for this setting: dose: 100.0 mg/kg/injection, schedule: Q01DX009 (ip), vehicle: Klucel (hydroxypropylcellulose) (HPC).
Setting [7] is: dose: 200.0 mg/kg/injection, schedule: Q01DX009 (ip), vehicle: Klucel (hydroxypropylcellulose) (HPC).
Where [8] appears, read: dose: 400.0 mg/kg/injection, schedule: Q01DX009 (ip), vehicle: Klucel (hydroxypropylcellulose) (HPC).
[9] abbreviates: dose: 100.0 mg/kg/injection, schedule: Q01DX001 (ip), vehicle: saline.
The mark [10] stands for this setting: dose: 100.0 mg/kg/injection, schedule: Q04DX003 (ip), vehicle: saline.
Where [11] appears, read: dose: 200.0 mg/kg/injection, schedule: Q01DX001 (ip), vehicle: saline.
Setting [12] is: dose: 400.0 mg/kg/injection, schedule: Q01DX001 (ip), vehicle: saline.
Setting [13] is: dose: 100.0 mg/kg/injection, schedule: Q01DX001 (ip), vehicle: saline with Tween-80.
The mark [14] stands for this setting: dose: 200.0 mg/kg/injection, schedule: Q01DX001 (ip), vehicle: saline with Tween-80.
Where [15] appears, read: dose: 400.0 mg/kg/injection, schedule: Q01DX001 (ip), vehicle: saline with Tween-80.
[16] abbreviates: dose: 100.0 mg/kg/injection, schedule: Q01DX001 (ip), vehicle: Klucel (hydroxypropylcellulose) (HPC).
The mark [17] stands for this setting: dose: 200.0 mg/kg/injection, schedule: Q01DX001 (ip), vehicle: Klucel (hydroxypropylcellulose) (HPC).
[18] abbreviates: dose: 400.0 mg/kg/injection, schedule: Q01DX001 (ip), vehicle: Klucel (hydroxypropylcellulose) (HPC).

On to `C#CCn1cnc2c(=S)nc[nH]c21`, for which the T/C is, setting by setting: (dose: 10.0 mg/kg/injection, schedule: Q01DX009 (ip), vehicle: saline) 104 % of control; (dose: 15.0 mg/kg/injection, schedule: Q04DX003 (ip), vehicle: saline) 103 % of control; under setting [1], 114 % of control; (dose: 30.0 mg/kg/injection, schedule: Q04DX003 (ip), vehicle: saline) 111 % of control; (dose: 52.0 mg/kg/injection, schedule: Q04DX003 (ip), vehicle: Klucel (hydroxypropylcellulose) (HPC)) 110 % of control; (dose: 60.0 mg/kg/injection, schedule: Q04DX003 (ip), vehicle: saline) 111 % of control. Besides, the T/C is, setting by setting: (dose: 78.0 mg/kg/injection, schedule: Q04DX003 (ip), vehicle: Klucel (hydroxypropylcellulose) (HPC)) 115 % of control; (dose: 90.0 mg/kg/injection, schedule: Q01DX009 (ip), vehicle: saline) 119 % of control; (dose: 100.0 mg/kg/injection, schedule: Q01DX001 (ip), vehicle: other) 104 % of control; under setting [2], 113 % of control; (dose: 118.0 mg/kg/injection, schedule: Q04DX003 (ip), vehicle: Klucel (hydroxypropylcellulose) (HPC)) 115 % of control; (dose: 175.0 mg/kg/injection, schedule: Q01DX009 (ip), vehicle: saline) 93 % of control. Further, the T/C (dose: 177.0 mg/kg/injection, schedule: Q01DX001 (ip), vehicle: Klucel (hydroxypropylcellulose) (HPC)) is 108 % of control; the T/C (dose: 177.0 mg/kg/injection, schedule: Q04DX003 (ip), vehicle: Klucel (hydroxypropylcellulose) (HPC)) is 155 % of control; the T/C (dose: 177.0 mg/kg/injection, schedule: Q04DX003 (ip), vehicle: saline) was 150 % of control; the T/C (dose: 200.0 mg/kg/injection, schedule: Q01DX001 (ip), vehicle: other) was 121 % of control; the T/C under setting [3] is 124 % of control; the T/C (dose: 266.0 mg/kg/injection, schedule: Q04DX003 (ip), vehicle: Klucel (hydroxypropylcellulose) (HPC)) is 162 % of control. For the same molecule, the T/C was 116 % of control (dose: 266.0 mg/kg/injection, schedule: Q04DX003 (ip), vehicle: saline); 157 % of control under setting [4]; 114 % of control under setting [5]; 152 % of control (dose: 600.0 mg/kg/injection, schedule: Q01DX001 (ip), vehicle: Klucel (hydroxypropylcellulose) (HPC)); 156 % of control (dose: 600.0 mg/kg/injection, schedule: Q01DX001 (ip), vehicle: other); 112 % of control (dose: 600.0 mg/kg/injection, schedule: Q04DX003 (ip), vehicle: saline).
For the molecule `CCCCCCCCCNC(C)=O`, the T/C is 97 % of control under setting [6] and 92 % of control under setting [7].
As for `CC(O)c1cccc(NC(=O)NC(C)(C)C)c1` (configuration not stated), the T/C reads like this: under setting [6], 102 % of control; under setting [7], 107 % of control; under setting [8], 113 % of control.
As for `CC(C)c1sc([S-])n[n+]1-c1ccccc1`, the T/C under setting [9] was 104 % of control; the T/C under setting [10] was 101 % of control; the T/C under setting [11] was 101 % of control; the T/C (dose: 200.0 mg/kg/injection, schedule: Q04DX003 (ip), vehicle: saline) was 95 % of control; the T/C under setting [12] was 91 % of control; the T/C under setting [5] was 101 % of control.
`CC(O)C12OC1CC1C3CC4OC45CC(O)CCC5(C)C3CCC12C` (configuration not stated): the T/C is 106 % of control (dose: 100.0 mg/kg/injection, schedule: Q01DX001 (sc), vehicle: steriod suspending solution); 103 % of control (dose: 200.0 mg/kg/injection, schedule: Q01DX001 (sc), vehicle: steriod suspending solution); 109 % of control (dose: 400.0 mg/kg/injection, schedule: Q01DX001 (sc), vehicle: steriod suspending solution).
For the molecule `O=P(O)(O)Cc1c(Cl)c(Cl)c(CP(=O)(O)O)c(Cl)c1Cl`, the T/C by setting is: under setting [9], 107 % of control; under setting [11], 104 % of control; under setting [12], 104 % of control.
As for `COC(=O)c1ccc(N(C)CC2=Nc3c(nc(N)nc3SCc3ccccc3)NC2)cc1`, the T/C under setting [13] was 97 % of control, the T/C under setting [14] was 108 % of control and the T/C under setting [15] is 101 % of control.
`O=C(CNC(=O)c1ccc(Cl)cc1)NO`: the T/C runs as follows: under setting [16], 96 % of control; under setting [17], 102 % of control; under setting [18], 96 % of control.
On to `Cc1cc(C)c[n+](Cc2ccccc2Cl)c1`, for which the T/C by setting is: (dose: 12.5 mg/kg/injection, schedule: Q01DX001 (ip), vehicle: saline) 102 % of control; (dose: 25.0 mg/kg/injection, schedule: Q01DX001 (ip), vehicle: saline) 96 % of control.
Consider `CC(=O)N(C)c1ccc(NC(=S)NC(=O)c2cccc([N+](=O)[O-])c2)cc1`, for which the T/C runs as follows: (dose: 25.0 mg/kg/injection, schedule: Q01DX009 (ip), vehicle: saline with Tween-80) 97 % of control and 109 % of control; (dose: 50.0 mg/kg/injection, schedule: Q01DX009 (ip), vehicle: saline with Tween-80) 98 % of control and 108 % of control; under setting [13], 97 % of control; (dose: 100.0 mg/kg/injection, schedule: Q04DX002 (ip), vehicle: saline) 93 % of control and 101 % of control; under setting [14], 92 % of control; (dose: 200.0 mg/kg/injection, schedule: Q04DX002 (ip), vehicle: saline) 96 % of control and 97 % of control. The T/C by setting is: under setting [15], 92 % of control; (dose: 400.0 mg/kg/injection, schedule: Q01DX009 (ip), vehicle: saline with Tween-80) 93 % of control and 105 % of control; (dose: 400.0 mg/kg/injection, schedule: Q04DX002 (ip), vehicle: saline) 101 % of control and 104 % of control.
As to `Cc1cccc(Cl)c1N=Nc1sc(N)nc1C`, the T/C is 105 % of control (dose: 75.0 mg/kg/injection, schedule: Q01DX001 (ip), vehicle: saline) and 105 % of control (dose: 150.0 mg/kg/injection, schedule: Q01DX001 (ip), vehicle: saline).
On to `CN(C)c1c(Cl)cc([N+](=O)[O-])cc1Cl`, for which the T/C is, setting by setting: under setting [16], 97 % of control; under setting [17], 95 % of control; under setting [18], 94 % of control.
With `CCOC(=O)C(=O)Cc1sccc1[N+](=O)[O-]`, the T/C reads like this: under setting [6], 93 % of control; under setting [2], 94 % of control; under setting [7], 94 % of control; under setting [3], 92 % of control; under setting [8], 100 % of control; under setting [4], 100 % of control.
Take `CC(C(=O)N1c2ccccc2Sc2ccccc21)[N+](C)(C)C` (configuration not stated): the T/C is 112 % of control (dose: 12.5 mg/kg/injection, schedule: Q04DX003 (ip), vehicle: saline); 100 % of control under setting [1]; 98 % of control (dose: 25.0 mg/kg/injection, schedule: Q04DX003 (ip), vehicle: saline); 102 % of control (dose: 50.0 mg/kg/injection, schedule: Q01DX009 (ip), vehicle: saline); 104 % of control (dose: 50.0 mg/kg/injection, schedule: Q04DX003 (ip), vehicle: saline); 104 % of control under setting [10].
In the case of `CC(=O)C(CCC(=O)O)(CCC(=O)O)c1ccccc1`, the T/C runs as follows: (dose: 30.0 mg/kg/injection, schedule: Q01DX Z (ip), vehicle: other) 100 % of control; (dose: 60.0 mg/kg/injection, schedule: Q01DX Z (ip), vehicle: other) 101 % of control; under setting [2], 92 % of control; (dose: 120.0 mg/kg/injection, schedule: Q01DX Z (ip), vehicle: other) 95 % of control; under setting [3], 97 % of control; (dose: 240.0 mg/kg/injection, schedule: Q01DX Z (ip), vehicle: other) 95 % of control. Further, the T/C under setting [4] is 102 % of control.
